Experimental data from patent publication US12553889B2, “Small molecules targeting the intrinsically disordered structural ensemble of α-synuclein protect against diverse α-synuclein mediated dysfunctions” (The Regents of the University of California, priority 2019, dated 2026).

Assays:
[1] = test system: BACE, GST and CAII control proteins; assay: Biacore 4000 SPR binding specificity (pb-index, control proteins); details: 100 μM
Procedure: The binding specificity of 576755 and its analogues was assessed by testing their ability to bind to αSyn versus a set of control proteins: Beta-Site Amyloid Precursor Protein Cleaving Enzyme 1 (BACE), Glutathione-S transferase (GST) and Carbonic Anhydrase (CAII). The binding data was merged into a pb-index, as discussed in more detail below. Compounds were tested at 100 μM using the Biacore 4000 instrument as described below. […] The percent RMax (% Rmax) for αSyn and the average % Rmax for the control proteins (pb-index) were calculated described below. […] The remaining 576755-analogues show no reaction with the control proteins and thus have improved specificity of binding.
Preparation of off-target protein sensor chips. […]
(§1) Surface Plasmon Resonance Measurements. […] Time-dependent binding curves were monitored simultaneously. […] The time-dependent binding curves were monitored simultaneously. […]
SPR Data Evaluation. The obtained data were quality controlled and evaluated using the manufacturers Evaluation Software as described previously (Regnström, K. et al. (2013)). Data were exported into Microsoft Excel and further analyzed as follows: The binding levels of running buffer injections were used to calculate the background noise level (>three-fold σ). All binding level data was calculated by subtracting the background noise level and adjustment to molecular weight (% Rmax). […]

αSyn = αSyn (Homo sapiens, UniProt P37840); assay: Biacore T200 SPR kinetics and affinity to tethered αSyn; type: binding; parameters: made in house; host or cells: E. coli
Procedure: RU (resonance units) from the Biacore machine are plotted against time. […] 576755 was injected at six concentrations in two-fold dilutions starting at 200 μM in running buffer containing 25 mM TRIS pH 7.4, 100 mM NaCl, 1% DMSO. […] All data were fitted to 1:1 binding model using the T200 software evaluation.
A Biacore Surface Plasmon Resonance (SPR) method was developed to detect binding to αSyn both in a high throughput manner (Biacore 4000 machine) and in a sensitive format (Biacore T200). A dual capture method was developed in which αSyn is captured both by an antibody to the central region of αSyn and by immobilized N-termal His-tagged αSyn. […]
as §1
Affinity constants were determined using the Biacore T200 evaluation software V.1 by curve fitting using a 1:1 binding model. […] The rate of complex formation during fragment injection is calculated according to the equation (2): dR/dt=kaC(Rmax−R)−kdR (1:1 interaction), where R is the SPR signal in response units (RU), C is the concentration of analyte, Rmax is the maximum analyte binding capacity in RU, and dR/dt is the rate of SPR signal change. […]

CNC(=O)c1cc(O)ccc1N [Compound 576755, 2-amino-5-hydroxy-N-methylbenzamide]
binding to control proteins (pb-index versus % Rmax of αSyn binding) [1]: some non-specific binding to the control proteins | Kd (αSyn; six concentrations in two-fold dilutions from 200 μM, 25 mM TRIS pH 7.4, 100 mM NaCl, 1% DMSO, read-out: binding affinity for αSyn (kinetics fits, 1:1 binding model)): 73 µM | binding behaviour (Biacore traces, off rates) (αSyn; tethered αSyn): well-behaved, robust and reversible binding
